This note sets out measurements from ChEMBL document CHEMBL1759842, “Discovery of non-glucoside SGLT2 inhibitors” (Bioorg Med Chem Lett, 2011).

What all share (type): cell-based
Test [1] has as its target T1, Sodium/glucose cotransporter 2 (Homo sapiens, UniProt P31639).
T1 sequence (P31639 whole entry): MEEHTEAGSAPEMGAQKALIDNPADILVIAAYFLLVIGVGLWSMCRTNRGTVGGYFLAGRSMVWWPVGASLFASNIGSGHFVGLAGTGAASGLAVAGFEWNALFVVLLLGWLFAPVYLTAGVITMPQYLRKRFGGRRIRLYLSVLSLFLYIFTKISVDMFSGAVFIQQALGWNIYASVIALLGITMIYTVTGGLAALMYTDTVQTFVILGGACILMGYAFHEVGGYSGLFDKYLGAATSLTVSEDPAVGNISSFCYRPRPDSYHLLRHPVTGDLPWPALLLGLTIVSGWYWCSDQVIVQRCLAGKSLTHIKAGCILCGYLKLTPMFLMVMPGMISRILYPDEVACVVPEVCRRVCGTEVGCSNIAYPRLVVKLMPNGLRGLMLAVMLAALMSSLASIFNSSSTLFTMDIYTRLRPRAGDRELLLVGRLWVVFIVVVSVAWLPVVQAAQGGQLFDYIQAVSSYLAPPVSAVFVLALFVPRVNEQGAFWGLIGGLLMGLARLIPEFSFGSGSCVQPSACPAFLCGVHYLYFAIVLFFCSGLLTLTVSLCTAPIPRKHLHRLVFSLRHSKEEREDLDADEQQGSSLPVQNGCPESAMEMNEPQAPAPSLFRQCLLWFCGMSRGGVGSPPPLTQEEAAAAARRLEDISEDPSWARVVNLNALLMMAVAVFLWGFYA
The test is described as follows: Inhibition of human SGLT2 expressed in CHO cells assessed as inhibition of [14C]-alpha-methyl-D-glucopyranoside transport after 60 mins by scintillation counting.

Test [2] addresses T2, Sodium/glucose cotransporter 2 (Mus musculus, UniProt Q923I7).
T2 sequence (Q923I7 whole entry): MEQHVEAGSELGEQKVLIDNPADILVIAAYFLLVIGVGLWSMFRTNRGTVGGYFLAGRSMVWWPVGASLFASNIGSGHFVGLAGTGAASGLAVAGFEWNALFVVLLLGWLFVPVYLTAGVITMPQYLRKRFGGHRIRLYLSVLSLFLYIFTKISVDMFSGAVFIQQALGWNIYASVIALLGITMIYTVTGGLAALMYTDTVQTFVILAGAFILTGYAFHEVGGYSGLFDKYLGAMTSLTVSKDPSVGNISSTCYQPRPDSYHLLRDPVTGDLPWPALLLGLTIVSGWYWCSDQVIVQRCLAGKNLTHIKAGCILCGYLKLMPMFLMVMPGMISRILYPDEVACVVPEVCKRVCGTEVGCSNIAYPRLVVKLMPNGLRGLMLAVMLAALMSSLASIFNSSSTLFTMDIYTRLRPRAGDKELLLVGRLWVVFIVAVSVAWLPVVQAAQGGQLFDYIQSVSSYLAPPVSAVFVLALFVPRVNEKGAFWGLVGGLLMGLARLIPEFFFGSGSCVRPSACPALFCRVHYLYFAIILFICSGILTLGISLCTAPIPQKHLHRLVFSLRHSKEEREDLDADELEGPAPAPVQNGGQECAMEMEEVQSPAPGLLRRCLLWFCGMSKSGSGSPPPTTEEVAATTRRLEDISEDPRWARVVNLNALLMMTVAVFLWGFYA
The experiment in a line: Inhibition of mouse SGLT2 expressed in CHO cells assessed as inhibition of [14C]-alpha-methyl-D-glucopyranoside transport after 60 mins by scintillation counting.

Test [3] has as its target T3, Sodium/glucose cotransporter 2 (Rattus norvegicus, UniProt P53792).
T3 sequence (P53792 whole entry): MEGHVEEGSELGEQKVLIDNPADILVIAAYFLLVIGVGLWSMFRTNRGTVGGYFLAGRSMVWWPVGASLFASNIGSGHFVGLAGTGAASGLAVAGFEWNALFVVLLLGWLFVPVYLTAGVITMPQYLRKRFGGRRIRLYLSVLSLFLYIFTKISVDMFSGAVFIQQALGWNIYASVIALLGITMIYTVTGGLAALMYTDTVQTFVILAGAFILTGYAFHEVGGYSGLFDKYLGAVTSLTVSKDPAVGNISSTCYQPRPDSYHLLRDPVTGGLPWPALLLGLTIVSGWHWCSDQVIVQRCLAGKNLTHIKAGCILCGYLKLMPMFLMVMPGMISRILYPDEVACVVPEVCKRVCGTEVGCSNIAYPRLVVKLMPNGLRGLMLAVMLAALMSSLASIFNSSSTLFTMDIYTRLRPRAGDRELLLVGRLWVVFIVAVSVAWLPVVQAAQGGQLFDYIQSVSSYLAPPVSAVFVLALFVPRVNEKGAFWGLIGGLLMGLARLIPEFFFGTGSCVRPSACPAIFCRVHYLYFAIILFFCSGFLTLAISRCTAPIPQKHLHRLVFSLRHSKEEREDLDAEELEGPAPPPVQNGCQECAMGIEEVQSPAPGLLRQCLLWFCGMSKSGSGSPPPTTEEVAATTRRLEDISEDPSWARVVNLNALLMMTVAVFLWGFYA
The test is described as follows: Inhibition of rat SGLT2 expressed in CHO cells assessed as inhibition of [14C]-alpha-methyl-D-glucopyranoside transport after 60 mins by scintillation counting.

For test [4], the target named is T4, Sodium/glucose cotransporter 1 (Homo sapiens, UniProt P13866).
T4 sequence (P13866 whole entry): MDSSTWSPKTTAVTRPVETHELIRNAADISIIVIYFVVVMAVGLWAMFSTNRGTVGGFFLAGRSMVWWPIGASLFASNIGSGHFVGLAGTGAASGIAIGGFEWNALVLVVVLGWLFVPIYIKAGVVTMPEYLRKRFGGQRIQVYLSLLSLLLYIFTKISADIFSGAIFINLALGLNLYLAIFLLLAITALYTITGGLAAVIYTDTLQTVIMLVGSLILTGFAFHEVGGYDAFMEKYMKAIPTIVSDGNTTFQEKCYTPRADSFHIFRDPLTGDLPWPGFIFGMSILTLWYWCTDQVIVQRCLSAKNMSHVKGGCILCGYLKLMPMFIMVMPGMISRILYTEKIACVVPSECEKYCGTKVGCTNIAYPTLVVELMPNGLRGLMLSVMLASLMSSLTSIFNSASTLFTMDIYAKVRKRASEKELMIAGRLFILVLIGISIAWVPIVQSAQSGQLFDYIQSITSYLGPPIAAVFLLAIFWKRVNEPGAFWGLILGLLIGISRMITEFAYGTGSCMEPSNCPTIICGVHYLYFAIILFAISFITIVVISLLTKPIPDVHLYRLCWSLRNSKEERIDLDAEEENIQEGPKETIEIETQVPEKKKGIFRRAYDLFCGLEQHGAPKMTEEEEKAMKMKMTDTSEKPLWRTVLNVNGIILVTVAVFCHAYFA
The experiment in a line: Inhibition of human SGLT1 expressed in CHO cells assessed as inhibition of [14C]-alpha-methyl-D-glucopyranoside transport after 60 mins by scintillation counting.

Consider `Cn1c(CN2C(=O)CSc3ccc(C(F)(F)F)cc32)nnc1SCc1ccc(Cl)cc1`, for which the half-inhibitory concentration (IC50) (usually the concentration that gives 50% inhibition) in test [1] came to 1.4 µM; in test [2], 1.2 µM; in test [3] it was 0.4 µM; in test [4] it was 7 µM.
